Measured values from PubChem BioAssay (NCI).
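Where inhibition never reached the appropriate level, the endpoint shown equals the highest concentration tested. Otherwise, values were interpolated linearly from a five-concentration, 48-hour dose response in 96-well plates. Abbreviation: GI50, concentration required for 50% inhibition of growth. TGI denotes the concentration required for complete inhibition of growth.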

How the values were obtained:
Experiment in all cases: inhibition of tumour cell growth, NCI panel, 48 h
786-0 renal = test system: 786-0 renal
A498 renal = test system: A498 renal
A549 NSCLC = test system: A549 NSCLC
ACHN renal = test system: ACHN renal
BT-549 breast = test system: BT-549 breast
CAKI-1 renal = test system: CAKI-1 renal
CCRF-CEM leukemia = test system: CCRF-CEM leukemia
COLO 205 colon = test system: COLO 205 colon
DU-145 prostate = test system: DU-145 prostate
EKVX NSCLC = test system: EKVX NSCLC
HCC-2998 colon = test system: HCC-2998 colon
HCT-116 colon = test system: HCT-116 colon
HCT-15 colon = test system: HCT-15 colon
HL-60(TB) leukemia = test system: HL-60(TB) leukemia
HOP-62 NSCLC = test system: HOP-62 NSCLC
HOP-92 NSCLC = test system: HOP-92 NSCLC
HS 578T breast = test system: HS 578T breast
HT29 colon = test system: HT29 colon
IGROV1 ovarian = test system: IGROV1 ovarian
K-562 leukemia = test system: K-562 leukemia
KM12 colon = test system: KM12 colon
LOX IMVI melanoma = test system: LOX IMVI melanoma
M14 melanoma = test system: M14 melanoma
MALME-3M melanoma = test system: MALME-3M melanoma
MCF7 breast = test system: MCF7 breast
MDA-MB-231 breast = test system: MDA-MB-231 breast
MDA-MB-435 = test system: MDA-MB-435
MOLT-4 leukemia = test system: MOLT-4 leukemia
NCI-H226 lung = test system: NCI-H226 lung
NCI-H23 lung = test system: NCI-H23 lung
NCI-H460 lung = test system: NCI-H460 lung
NCI-H522 lung = test system: NCI-H522 lung
NCI/ADR-RES ovarian = test system: NCI/ADR-RES ovarian
OVCAR-3 ovarian = test system: OVCAR-3 ovarian
OVCAR-4 ovarian = test system: OVCAR-4 ovarian
OVCAR-5 ovarian = test system: OVCAR-5 ovarian
OVCAR-8 ovarian = test system: OVCAR-8 ovarian
PC-3 prostate = test system: PC-3 prostate
RPMI-8226 leukemia = test system: RPMI-8226 leukemia
RXF 393 renal = test system: RXF 393 renal
SF-268 CNS = test system: SF-268 CNS
SF-295 CNS = test system: SF-295 CNS
SF-539 CNS = test system: SF-539 CNS
SK-MEL-2 melanoma = test system: SK-MEL-2 melanoma
SK-MEL-28 melanoma = test system: SK-MEL-28 melanoma
SK-MEL-5 melanoma = test system: SK-MEL-5 melanoma
SK-OV-3 ovarian = test system: SK-OV-3 ovarian
SN12C renal = test system: SN12C renal
SNB-19 CNS = test system: SNB-19 CNS
SNB-75 CNS = test system: SNB-75 CNS
SR leukemia = test system: SR leukemia
SW-620 colon = test system: SW-620 colon
T-47D breast = test system: T-47D breast
TK-10 renal = test system: TK-10 renal
U251 CNS = test system: U251 CNS
UACC-257 melanoma = test system: UACC-257 melanoma
UACC-62 melanoma = test system: UACC-62 melanoma
UO-31 renal = test system: UO-31 renal

C/C(=N/NC(N)=S)c1ccc(Nc2nc(SCC(C)C)nc(-c3ccc(F)cc3)c2C#N)cc1
GI50 (786-0 renal): 2.07 µM
TGI (786-0 renal): 13.8 µM
GI50 (A498 renal): 2.99 µM
TGI (A498 renal): 8.8 µM
GI50 (A549 NSCLC): 0.488 µM
TGI (A549 NSCLC): 10.9 µM
GI50 (ACHN renal): 0.423 µM
TGI (ACHN renal): 11.4 µM
GI50 (BT-549 breast): 4.04 µM
TGI (BT-549 breast): 18.4 µM
GI50 (CAKI-1 renal): 1.65 µM
TGI (CAKI-1 renal): 7.49 µM
GI50 (CCRF-CEM leukemia): 5.83 µM
TGI (CCRF-CEM leukemia): > 100 µM
GI50 (COLO 205 colon): 1.18 µM
TGI (COLO 205 colon): 22.1 µM
GI50 (DU-145 prostate): 1.55 µM
TGI (DU-145 prostate): 20.3 µM
GI50 (EKVX NSCLC): 4.53 µM
TGI (EKVX NSCLC): 25.4 µM
GI50 (HCC-2998 colon): 5.69 µM
TGI (HCC-2998 colon): 31.4 µM
GI50 (HCT-116 colon): 0.539 µM
TGI (HCT-116 colon): 13.6 µM
GI50 (HCT-15 colon): 0.928 µM
TGI (HCT-15 colon): > 100 µM
GI50 (HL-60(TB) leukemia): 17.9 µM
TGI (HL-60(TB) leukemia): > 100 µM
GI50 (HOP-62 NSCLC): 3.04 µM
TGI (HOP-62 NSCLC): 13.6 µM
GI50 (HOP-92 NSCLC): 1.12 µM
TGI (HOP-92 NSCLC): 5.01 µM
GI50 (HS 578T breast): 3.08 µM
TGI (HS 578T breast): 54.1 µM
GI50 (HT29 colon): 1.28 µM
TGI (HT29 colon): 15.6 µM
GI50 (IGROV1 ovarian): 4.82 µM
TGI (IGROV1 ovarian): 21.4 µM
GI50 (K-562 leukemia): 1.41 µM
TGI (K-562 leukemia): > 100 µM
GI50 (KM12 colon): 12.7 µM
TGI (KM12 colon): > 100 µM
GI50 (LOX IMVI melanoma): 1.13 µM
TGI (LOX IMVI melanoma): 10.4 µM
GI50 (M14 melanoma): 4.41 µM
TGI (M14 melanoma): 26 µM
GI50 (MALME-3M melanoma): 1.88 µM
TGI (MALME-3M melanoma): 11.6 µM
GI50 (MCF7 breast): 0.696 µM
TGI (MCF7 breast): 28.8 µM
GI50 (MDA-MB-231 breast): 5.91 µM
TGI (MDA-MB-231 breast): 25.9 µM
GI50 (MDA-MB-435): 2.14 µM
TGI (MDA-MB-435): 17.4 µM
GI50 (MOLT-4 leukemia): 2.07 µM
TGI (MOLT-4 leukemia): 79.2 µM
GI50 (NCI-H226 lung): 1.46 µM
TGI (NCI-H226 lung): 14.1 µM
GI50 (NCI-H23 lung): 1.72 µM
TGI (NCI-H23 lung): 12 µM
GI50 (NCI-H460 lung): 0.414 µM
TGI (NCI-H460 lung): 10.3 µM
GI50 (NCI-H522 lung): 2.59 µM
TGI (NCI-H522 lung): 13.1 µM
GI50 (NCI/ADR-RES ovarian): 1.89 µM
TGI (NCI/ADR-RES ovarian): 19.1 µM
GI50 (OVCAR-3 ovarian): 0.685 µM
TGI (OVCAR-3 ovarian): 4.95 µM
GI50 (OVCAR-4 ovarian): 0.329 µM
TGI (OVCAR-4 ovarian): 2.23 µM
GI50 (OVCAR-5 ovarian): 6.94 µM
TGI (OVCAR-5 ovarian): 47.5 µM
GI50 (OVCAR-8 ovarian): 3.22 µM
TGI (OVCAR-8 ovarian): 26.4 µM
GI50 (PC-3 prostate): 0.59 µM
TGI (PC-3 prostate): 5.52 µM
GI50 (RPMI-8226 leukemia): 3.26 µM
TGI (RPMI-8226 leukemia): 80.3 µM
GI50 (RXF 393 renal): 1.95 µM
TGI (RXF 393 renal): 7.16 µM
GI50 (SF-268 CNS): 10.9 µM
TGI (SF-268 CNS): 33.1 µM
GI50 (SF-295 CNS): 0.598 µM
TGI (SF-295 CNS): 2.69 µM
GI50 (SF-539 CNS): 2.01 µM
TGI (SF-539 CNS): 10.4 µM
GI50 (SK-MEL-2 melanoma): 5.09 µM
TGI (SK-MEL-2 melanoma): 19 µM
GI50 (SK-MEL-28 melanoma): 2.76 µM
TGI (SK-MEL-28 melanoma): 13.4 µM
GI50 (SK-MEL-5 melanoma): 2.74 µM
TGI (SK-MEL-5 melanoma): 15.6 µM
GI50 (SK-OV-3 ovarian): 3.1 µM
TGI (SK-OV-3 ovarian): 13.7 µM
GI50 (SN12C renal): 0.717 µM
TGI (SN12C renal): 14.1 µM
GI50 (SNB-19 CNS): 9.08 µM
TGI (SNB-19 CNS): 22.4 µM
GI50 (SNB-75 CNS): 0.418 µM
TGI (SNB-75 CNS): 3.95 µM
GI50 (SR leukemia): 0.509 µM
TGI (SR leukemia): 18.9 µM
GI50 (SW-620 colon): 0.62 µM
TGI (SW-620 colon): > 100 µM
GI50 (T-47D breast): 2.11 µM
TGI (T-47D breast): 29.8 µM
GI50 (TK-10 renal): 3.56 µM
TGI (TK-10 renal): 18.9 µM
GI50 (U251 CNS): 0.77 µM
TGI (U251 CNS): 11 µM
GI50 (UACC-257 melanoma): 4.56 µM
TGI (UACC-257 melanoma): 30.1 µM
GI50 (UACC-62 melanoma): 1.66 µM
TGI (UACC-62 melanoma): 10.5 µM
GI50 (UO-31 renal): 2.75 µM
TGI (UO-31 renal): 15.4 µM
